In patent US20230382926A1, “COMPOUNDS AND USES THEREOF” (The University of The West Indies, priority 2022, published 2023):

Experiments:
K. pneumoniae = assay: Rescue concentration of substituted phenyl azaindole derivatives; type: cell-based; conditions: for Rescue concentration, K. pneumoniae Ciprofloxacin (1 μg/mL): Ciprofloxacin fixed at 1 μg/mL; for Rescue concentration, K. pneumoniae Imipenem (1 μg/mL): Imipenem fixed at 1 μg/mL
Protocol: (§1) The antibiotic adjuvant activity of the SPazaBIMs were evaluated in combination with representative antibiotics (representing 13 antibiotic classes) against the 19 pathogens strains listed in Table 3. To assess the adjuvant properties of the SP-azaBIM molecules, a modified checkerboard minimum inhibitory concentration assay was used. A fixed concentration of the respective antibiotic (susceptible breakpoint concentration) was mixed with a twofold dilution series of the test SP-azaBIM (FIG. 1). This was to determine the concentration of SP-azaBIM needed potentiate the antibiotic at a clinically susceptible breakpoint concentration. Antibiotic susceptible breakpoint concentrations for the respective bacteria were determined using Clinical Laboratory Standards Institute (CLSI) criteria M100 ED31.
(§2) In this study, only those antibiotics to which the bacterial was classed as resistant were included in the adjuvant assays. In this assay we recorded the rescue concentration of the SP-BIM for a respective antibiotic. The rescue concentration was defined as the concentration of the adjuvant that reduces the minimum inhibitory concentration (MIC) of an antibiotic to the susceptibility breakpoint.
(§3) Immediately prior to testing, the respective antibiotic and SP-azaBIM was dissolved in sterile deionised water at 20× the required test concentration. Each microtiter well was then inoculated with 180 μl of bacterial inoculum of 10^6 CFU/ml in ca-MHB, and 10 μl each if the antibiotic and SP-azaBIM was added to the plates. These plates were then incubated at 35° C. for 24 h under aerobic conditions. A similar method was followed for the fastidious pathogens except that they were cultured in ca-MHB with 5% sheep blood and 5% CO2.
(§4) Bacterial growth was visually inspected after the incubation period and the rescue concentration of the test SP-azaBIM was determined as the lowest concentration of the compound needed to reduce bacterial growth by 99.99% at the susceptible breakpoint concentration of the antibiotic. For example, CLSI states that Pseudomonas aeruginosa is susceptible to the Imipenem if the MIC is ≤2 μg mL^−1. If the bacteria can tolerate this concentration in vitro, then the bacteria has an intermediate or absolute resistance toward that antibiotic. The goal was to determine the concentration of SP-azaBIM needed to cause P. aeruginosa death at 2 μg mL^−1 of Imipenem therefore restoring susceptibility of the bacteria to toward the antibiotic.
(§5) Phenyl azaindole compounds are also tested for their adjuvant activities and the method is shown in Example 39.

MRSA = assay: as above; type: cell-based, Staphylococcus aureus; conditions: Amoxicillin fixed at 2 μg/mL
Protocol: as §1, §2, §3, §4, §5

P. aeruginosa = assay: as above; type: cell-based; conditions: Imipenem fixed at 1 μg/mL
Protocol: as §1, §2, §3
Bacterial growth was visually inspected after the incubation period and the rescue concentration of the test SP-azaBIM was determined as the lowest concentration of the compound needed to reduce bacterial growth by 99.99% at the susceptible breakpoint concentration of the antibiotic. […] If the bacteria can tolerate this concentration in vitro, then the bacteria has an intermediate or absolute resistance toward that antibiotic. […]
as §5

[1] = test system: Vancomycin resistant Enterococcus faecalis; assay: Broth microdilution minimum inhibitory concentration; type: cell-based; conditions: compound alone
Protocol: (§6) Antibacterial activity of the synthesized compounds was determined following guidelines established by the Clinical and Laboratory Standards Institute M07-A10 (CLSI 2015), following the broth microdilution method. Briefly, the test articles were dissolved in 100% DMSO, diluted by 2-fold serial titrations in the same vehicle (100% DMSO), for a total of 11 concentrations. A 4 μL aliquot of each dilution was then added to 196 μL of broth medium seeded with the bacterial suspension in wells of a 96 well plate (bacterial count: 2×10^5 to 8×10^5 colony forming units/mL final). The highest test substance concentration was 1028 μg/mL, and the final vehicle concentration was 2 percent. Following incubation, the test plate was visually examined, and each well was scored for growth or complete inhibition of growth. The minimum inhibitory concentration was determined as the lowest concentration were no growth of the bacterial was observed. Each test article was assayed in duplicate.

[2] = test system: Methicillin resistant Staphylococcus aureus; assay: as above; type: cell-based; conditions: compound alone
Protocol: as §6

[3] = test system: Multidrug resistant Pseudomonas aeruginosa; assay: as above; type: cell-based; conditions: compound alone
Protocol: as §6

[4] = test system: Carbapenem resistant Acinetobacter baumannii; assay: as above; type: cell-based; conditions: compound alone
Protocol: as §6

[5] = test system: Carbapenem resistant Klebsiella pneumoniae; assay: as above; type: cell-based; conditions: compound alone
Protocol: as §6

SMILES	MIC [1] [µg/mL]	MIC [2] [µg/mL]	MIC [3] [µg/mL]	MIC [4] [µg/mL]	MIC [5] [µg/mL]	Rescue concentration, K. pneumoniae Ciprofloxacin (1 μg/mL) (K. pneumoniae) [µg/mL]	Rescue concentration, K. pneumoniae Imipenem (1 μg/mL) (K. pneumoniae) [µg/mL]	Rescue concentration, MRSA Amoxicillin (2 μg/mL) (MRSA) [µg/mL]	Rescue concentration, P. aeruginosa Imipenem (1 μg/mL) (P. aeruginosa) [µg/mL]
O=[N+]([O-])c1cccc(C(c2c[nH]c3cnccc23)c2c[nH]c3cnccc23)c1 [3NO2-Bis-6aza, 3,3′-((3-nitrophenyl)methylene)bis(1H-pyrrolo[2,3-c]pyridine)]	< 1020	< 1020	< 1020	< 1020	< 1020	<256	<256	<256	<256
Oc1ccc(C(O)c2c[nH]c3cnc(Cl)cc23)cc1 (stereo not drawn) [4OH-5Cl-6aza-OH, 4-((5-chloro-1H-pyrrolo[2,3-c]pyridin-3-yl)(hydroxy)methyl)phenol]	< 1020	< 1020	< 1020	< 1020	< 1020	<256	256	16	<256
Oc1ccc(C(O)c2c[nH]c3ncccc23)cc1 (stereo not drawn) [Compound 4OH-7aza-OH, 4-(hydroxy(1H-pyrrolo[2,3-b]pyridin-3-yl)methyl)phenol]	< 1020	< 1020	< 1020	< 1020	< 1020	<256	<256	128	<256
O=[N+]([O-])c1ccc(C(O)c2c[nH]c3cnc(Cl)cc23)cc1 (stereo not drawn) [4NO2-5Cl-6aza-OH, (5-chloro-1H-pyrrolo[2,3-c]pyridin-3-yl)(4-nitrophenyl)methanol]	< 1020	< 1020	< 1020	< 1020	< 1020	<256	<256	<256	128
O=[N+]([O-])c1ccc(C(O)c2c[nH]c3cnc(Br)cc23)cc1 (stereo not drawn) [4NO2-5Br-6aza-OH, (5-bromo-1H-pyrrolo[2,3-c]pyridin-3-yl)(4-nitrophenyl)methanol]	< 1020	< 1020	< 1020	< 1020	< 1020	<256	<256	32	<256
OC(c1ccc(Br)cc1)c1c[nH]c2cnc(Cl)cc12 (stereo not drawn) [4Br-5Cl-6aza-OH, (4-bromophenyl)(5-chloro-1H-pyrrolo[2,3-c]pyridin-3-yl)methanol]	< 1020	< 1020	< 1020	< 1020	< 1020	<256	<256	0.5	<256
O=Cc1cccc(C(O)c2c[nH]c3c(Cl)nccc23)c1 (stereo not drawn) [iso-7Cl-6aza-OH, 3-((7-chloro-1H-pyrrolo[2,3-c]pyridin-3-yl)(hydroxy)methyl)benzaldehyde]	< 1020	< 1020	< 1020	< 1020	< 1020	<256	<256	32	<256
Oc1ccc(C(c2c[nH]c3cnc(Cl)cc23)c2c[nH]c3cnc(Cl)cc23)cc1 [4OH-Bis 5Cl 6aza, 4-(bis(5-chloro-1H-pyrrolo[2,3-c]pyridin-3-yl)methyl)phenol]	< 1020	< 1020	< 1020	< 1020	< 1020	<256	<256	8	<256
O=[N+]([O-])c1ccccc1C(O)c1c[nH]c2cnccc12 (stereo not drawn) [Compound 2NO2-6aza-OH, (2-nitrophenyl)(1H-pyrrolo[2,3-c]pyridin-3-yl)methanol]	< 1020	< 1020	< 1020	< 1020	< 1020	256	128	256	<256

The next lines start with results.

MIC [1] [µg/mL]	MIC [2] [µg/mL]	MIC [3] [µg/mL]	MIC [4] [µg/mL]	MIC [5] [µg/mL]	SMILES	Rescue concentration, K. pneumoniae Ciprofloxacin (1 μg/mL) (K. pneumoniae) [µg/mL]	Rescue concentration, K. pneumoniae Imipenem (1 μg/mL) (K. pneumoniae) [µg/mL]	Rescue concentration, MRSA Amoxicillin (2 μg/mL) (MRSA) [µg/mL]	Rescue concentration, P. aeruginosa Imipenem (1 μg/mL) (P. aeruginosa) [µg/mL]
< 1020	< 1020	< 1020	< 1020	< 1020	O=[N+]([O-])c1cccc(C(O)c2c[nH]c3cnc(Cl)cc23)c1 (stereo not drawn) [3NO2-5Cl-6aza-OH, (5-chloro-1H-pyrrolo[2,3-c]pyridin-3-yl)(3-nitrophenyl)methanol]	<256	<256	<256	<256
< 1020	< 1020	< 1020	< 1020	< 1020	Oc1ccc(C(O)c2c[nH]c3ncc(F)cc23)cc1 (stereo not drawn) [4OH-5Fl-7aza-OH, 4-((5-fluoro-1H-pyrrolo[2,3-b]pyridin-3-yl)(hydroxy)methyl)phenol]	<256	<256	16	256
< 1020	< 1020	< 1020	< 1020	< 1020	O=[N+]([O-])c1cccc(C(O)c2c[nH]c3ncccc23)c1 (stereo not drawn) [Compound 3NO2-7aza-OH, (3-nitrophenyl)(1H-pyrrolo[2,3-b]pyridin-3-yl)methanol]	<256	<256	<256	<256
< 1020	< 1020	< 1020	< 1020	< 1020	O=[N+]([O-])c1cccc(C(O)c2c[nH]c3c(Cl)nc(Br)cc23)c1 (stereo not drawn) [3NO2-5Br-7Cl-6aza-OH, (5-bromo-7-chloro-1H-pyrrolo[2,3-c]pyridin-3-yl)(3-nitrophenyl)methanol]	<256	<256	16	<256
< 1020	< 1020	< 1020	< 1020	< 1020	O=[N+]([O-])c1cccc(C(O)c2c[nH]c3ncc(F)cc23)c1 (stereo not drawn) [3NO2-5Fl-7aza-OH, (5-fluoro-1H-pyrrolo[2,3-b]pyridin-3-yl)(3-nitrophenyl)methanol]	<256	<256	128	<256
